The results in this text go back to PubChem BioAssay (NCI).

The structures appear in SMILES notation.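 48-hour exposure; five concentrations; linearly interpolated endpoints. Definition used: TGI = concentration required for complete inhibition of growth.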

Some test systems named below: HS 578T breast; K-562 leukemia; COLO 205 colon; EKVX NSCLC; SF-268 CNS; MDA-MB-231 breast; A549 NSCLC; MDA-N; T-47D breast; DU-145 prostate; LOX IMVI melanoma; HOP-92 NSCLC; MALME-3M melanoma; HCT-116 colon; CAKI-1 renal; RXF 393 renal; BT-549 breast.
What all share (assay): NCI tumour cell line growth inhibition, 48 h

Consider `O=C1/C(=C/c2ccc(Oc3ccccc3)cc2)N=C(c2ccccc2)N1c1ccc(S(=O)(=O)Nc2nccs2)cc1`, for which the TGI in the test on HS 578T breast is greater than 100 µM; in the test with K-562 leukemia, greater than 100 µM; in the test on COLO 205 colon it was 22.2 µM; with EKVX NSCLC it was greater than 100 µM; in the test with SF-268 CNS, greater than 100 µM; with MDA-MB-231 breast it was greater than 100 µM. Besides, the TGI is greater than 100 µM in the test on A549 NSCLC; 15.8 µM in the test on MDA-N; 77.1 µM in the test on T-47D breast; greater than 100 µM in the test with DU-145 prostate; 70.5 µM in the test with LOX IMVI melanoma; 99.7 µM in the test on HOP-92 NSCLC. Moreover, the TGI in the test on MALME-3M melanoma was 86.6 µM; in the test on HCT-116 colon, 35.4 µM; in the test with CAKI-1 renal, greater than 100 µM; in the test on RXF 393 renal it was 93.4 µM.

For the compound `CCN(CC)C(=S)SC(C(=O)Nc1nnc(-c2ccccc2)o1)c1ccccc1` (stereo not drawn), the TGI in the test with HS 578T breast is greater than 100 µM; in the test on K-562 leukemia, greater than 100 µM; in the test on COLO 205 colon, 84.4 µM; with EKVX NSCLC, 49.5 µM; in the test on MDA-MB-231 breast it was greater than 100 µM; with A549 NSCLC, 35.7 µM. For the same compound, the TGI with MDA-N was 36.5 µM; in the test on T-47D breast, greater than 100 µM; in the test on DU-145 prostate, 57.8 µM; with BT-549 breast it was 35 µM; in the test on LOX IMVI melanoma, 17 µM; with MALME-3M melanoma, 62 µM. Besides, the TGI in the test with HCT-116 colon is 34.7 µM; with CAKI-1 renal it was 50 µM; in the test with RXF 393 renal, 39.8 µM.

`CCOC(OCC)N1C(=O)C2(C(OCC)OCC)CC3C(OC(=O)N3N)c3cccc1c32` (stereo not drawn): the TGI in the test on COLO 205 colon, in the test with EKVX NSCLC, in the test with SF-268 CNS, in the test on MDA-MB-231 breast, with A549 NSCLC and in the test on MDA-N was greater than 100 µM throughout. In addition, the TGI in the test on T-47D breast, with DU-145 prostate, with BT-549 breast, with LOX IMVI melanoma, in the test with MALME-3M melanoma and with HCT-116 colon was greater than 100 µM in each case. In addition, the TGI in the test on CAKI-1 renal and with RXF 393 renal was greater than 100 µM each time.

In the case of `CCOC(=O)c1cc(Br)c(-c2cc(C)no2)[nH]1`, the TGI in the test with COLO 205 colon is 34.8 µM; with EKVX NSCLC, greater than 100 µM; in the test with SF-268 CNS, greater than 100 µM; with MDA-MB-231 breast it was greater than 100 µM; in the test with A549 NSCLC, greater than 100 µM; in the test with MDA-N it was greater than 100 µM. The TGI with T-47D breast was greater than 100 µM; in the test on DU-145 prostate it was 73.8 µM; with BT-549 breast, greater than 100 µM; in the test on LOX IMVI melanoma it was greater than 100 µM; with HOP-92 NSCLC it was greater than 100 µM; with MALME-3M melanoma, 61.3 µM. Further, the TGI in the test with HCT-116 colon and in the test with RXF 393 renal was greater than 100 µM in each case.

As to `CN(C(=O)C1=CCC2(CC1)OCCO2)c1ccccc1I`, the TGI in the test with K-562 leukemia, in the test with COLO 205 colon, in the test on EKVX NSCLC, in the test on MDA-MB-231 breast, in the test on A549 NSCLC and in the test on MDA-N was greater than 100 µM in each case. The TGI in the test on T-47D breast, in the test on DU-145 prostate, in the test on LOX IMVI melanoma, in the test with HOP-92 NSCLC, in the test with HCT-116 colon and in the test on CAKI-1 renal was greater than 100 µM in each case.

On to `COc1cc2c(cc1OC)C(=O)C1(C2)[C@H](c2ccccc2)C2C(=O)c3cc(OC)c(OC)cc3C2[C@H]1c1ccccc1` (stereo partly drawn), for which the TGI in the test with HS 578T breast, in the test with K-562 leukemia, in the test with COLO 205 colon, with EKVX NSCLC, in the test on SF-268 CNS and in the test on MDA-MB-231 breast was greater than 100 µM in each case. Further, the TGI with A549 NSCLC, in the test on MDA-N, with T-47D breast, with DU-145 prostate, in the test on BT-549 breast and in the test with LOX IMVI melanoma was greater than 100 µM in each case. For the same compound, the TGI in the test on MALME-3M melanoma is greater than 100 µM; with HCT-116 colon, greater than 100 µM; with CAKI-1 renal it was 0.648 µM; in the test on RXF 393 renal, greater than 100 µM.

Regarding `CC(=O)n1cc(OP(=O)(Oc2ccccc2)Oc2ccccc2)c2ccccc21`, the TGI in the test on HS 578T breast is greater than 100 µM; in the test on K-562 leukemia, 67.4 µM; in the test with COLO 205 colon, 27.2 µM; in the test on SF-268 CNS, 81.3 µM; in the test with MDA-MB-231 breast, 86.4 µM; with A549 NSCLC, greater than 100 µM. Further, the TGI in the test with MDA-N is greater than 100 µM; in the test on T-47D breast, 80.2 µM; with DU-145 prostate it was greater than 100 µM; with BT-549 breast, greater than 100 µM; with LOX IMVI melanoma it was 62.1 µM; in the test on MALME-3M melanoma it was greater than 100 µM. For the same compound, the TGI turned out to be 92.2 µM in the test with HCT-116 colon and 54.3 µM in the test on CAKI-1 renal.

Turning to `N=CN=CC(=S)O[C@@H]1C(=O)N2CCC[C@@]23CCCC[C@@H]13`, the TGI with HS 578T breast, with K-562 leukemia, in the test on COLO 205 colon, with EKVX NSCLC, in the test on SF-268 CNS and with MDA-MB-231 breast was greater than 12.5 µM throughout. Moreover, the TGI in the test with A549 NSCLC, in the test on MDA-N, with T-47D breast, in the test on DU-145 prostate, in the test with LOX IMVI melanoma and in the test with MALME-3M melanoma was greater than 12.5 µM in each case. The TGI with HCT-116 colon, in the test with CAKI-1 renal and with RXF 393 renal was greater than 12.5 µM each time.

Take `O/N=C1/CC2(N3CCOCC3)C3CC/C(=N\O)C2CC1(Cc1ccccc1)C3` (stereo not drawn): the TGI in the test on K-562 leukemia, with COLO 205 colon, with EKVX NSCLC, in the test on SF-268 CNS, with MDA-MB-231 breast and in the test with A549 NSCLC was greater than 100 µM in each case. The TGI in the test on MDA-N, with T-47D breast, with DU-145 prostate, in the test on LOX IMVI melanoma, with MALME-3M melanoma and in the test with HCT-116 colon was greater than 100 µM in each case. Also, the TGI in the test on CAKI-1 renal and with RXF 393 renal was greater than 100 µM in each case.

As for `O=C(O)[C@H](Cc1ccccc1)NCCN1CCC[C@H]1C(=O)O`, the TGI in the test with K-562 leukemia, in the test with COLO 205 colon, with SF-268 CNS, in the test with MDA-MB-231 breast, in the test with A549 NSCLC and in the test on MDA-N was greater than 100 µM in each case. Also, the TGI with T-47D breast was greater than 100 µM; in the test with DU-145 prostate, greater than 100 µM; in the test with HOP-92 NSCLC it was 72.3 µM; in the test on MALME-3M melanoma, greater than 100 µM; in the test with HCT-116 colon it was greater than 100 µM; with CAKI-1 renal it was greater than 100 µM. In the test with RXF 393 renal, the TGI was greater than 100 µM.
